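Cells were grown in 96-well plates and exposed to each compound for 48 hours at five concentrations; endpoints were interpolated linearly between bracketing concentrations, or set to the highest concentration if not reached. GI50 marks 50% less growth.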 Activity calls are given as the source filed them. Cut-off read from the data, not from the text of the source: active = GI50 up to about 1.1 µM and inactive = higher.
Columns and labels:
Assay in all cases: growth of human tumour cells (NCI), 48 h
[1] = test system: PC-3
[2] = test system: NCI-H522
[3] = test system: A549
[4] = test system: MOLT-4
[5] = test system: RXF 393
[6] = test system: HCT-116
[7] = test system: T47D
[8] = test system: HL-60
[9] = test system: SK-MEL-5
[10] = test system: A498
[11] = test system: Hs-578T
[12] = test system: HT-29
[13] = test system: K562
[14] = test system: HCT-15
[15] = test system: BT-549
[16] = test system: SK-MEL-28
[17] = test system: NCI-H23
[18] = test system: OVCAR-3
[19] = test system: MDA-N
[20] = test system: SNB-19
[21] = test system: KM12
[22] = test system: MDA-MB-435
[23] = test system: EKVX
[24] = test system: HOP-92
[25] = test system: ACHN
[26] = test system: LOX IMVI
[27] = test system: MDA-MB-231
[28] = test system: CAKI-1
[29] = test system: IGROV-1
[30] = test system: SN12C
[31] = test system: OVCAR-5
[32] = test system: SF-295
[33] = test system: M14
[34] = test system: SF-268
[35] = test system: SR
[36] = test system: Malme-3M
[37] = test system: HOP-62
[38] = test system: TK-10
[39] = test system: NCI/ADR-RES
[40] = test system: SW-620
[41] = test system: SK-MEL-2
[42] = test system: UO-31
[43] = test system: UACC-62
[44] = test system: OVCAR-4
[45] = test system: 786-0
[46] = test system: NCI-H226
[47] = test system: OVCAR-8
[48] = test system: UACC-257
[49] = test system: U-251
[50] = test system: NCI-H460
[51] = test system: RPMI-8226
[52] = test system: MCF7
[53] = test system: SF-539
[54] = test system: SK-OV-3
[55] = test system: CCRF-CEM
[56] = test system: COLO 205
[57] = test system: SNB-75
[58] = test system: HCC 2998

Measured: GI50

Cc1ncc(COP(=O)(O)O)c(C)c1O
inactive: [1] > 100 µM | [2] > 100 µM | [3] > 100 µM | [4] > 100 µM | [5] > 100 µM | [6] > 100 µM | [7] > 100 µM | [8] > 100 µM | [9] > 100 µM | [10] > 100 µM | [11] > 100 µM | [12] > 100 µM | [13] > 100 µM | [15] > 100 µM | [16] > 100 µM | [17] > 100 µM | [18] > 100 µM | [19] > 100 µM | [20] > 100 µM | [21] > 100 µM | [22] > 100 µM | [23] > 100 µM | [24] > 100 µM | [25] > 100 µM | [26] > 100 µM | [27] > 100 µM | [28] > 100 µM | [29] > 100 µM | [30] > 100 µM | [31] > 100 µM | [32] > 100 µM | [33] > 100 µM | [34] > 100 µM | [35] > 100 µM | [36] > 100 µM | [37] > 100 µM | [38] > 100 µM | [39] > 100 µM | [40] > 100 µM | [41] > 100 µM | [42] > 100 µM | [43] > 100 µM | [44] > 100 µM | [45] > 100 µM | [46] > 100 µM | [47] > 100 µM | [48] > 100 µM | [49] > 100 µM | [50] > 100 µM
> 100 µM: [14]

CC(=O)/C=C(/C=N/O)c1ccccc1
inactive: [1] > 100 µM | [2] > 100 µM | [3] > 100 µM | [4] > 100 µM | [6] > 100 µM | [7] > 100 µM | [9] > 100 µM | [11] > 100 µM | [12] > 100 µM | [13] > 100 µM | [15] > 100 µM | [51] > 100 µM | [16] > 100 µM | [17] > 100 µM | [18] > 100 µM | [19] > 100 µM | [20] > 100 µM | [21] > 100 µM | [52] > 100 µM | [22] > 100 µM | [23] > 100 µM | [25] > 100 µM | [26] > 100 µM | [27] > 100 µM | [28] > 100 µM | [29] > 100 µM | [53] > 100 µM | [54] > 100 µM | [30] > 100 µM | [55] > 100 µM | [31] > 100 µM | [32] > 100 µM | [33] > 100 µM | [34] > 100 µM | [35] > 100 µM | [36] > 100 µM | [37] > 100 µM | [38] > 100 µM | [56] > 100 µM | [39] > 100 µM | [40] > 100 µM | [41] 56.5 µM | [42] > 100 µM | [43] > 100 µM | [44] > 100 µM | [45] > 100 µM | [46] > 100 µM | [47] > 100 µM | [57] 56 µM | [48] > 100 µM | [49] > 100 µM | [50] > 100 µM | [58] > 100 µM
64.3 µM: [14]

From ChEMBL document CHEMBL1201862, “PubChem BioAssay data set” (2004)
